“And” between values parts separate entries of the source, which are not always exact repeats. Identical values can stand only once. Marks after values point to notes of the source that are not given here.
Test system: anti collagen antibodies induced arthritis (ACAIA)
Assay: Anti collagen antibodies induced arthritis (ACAIA) in mice, intra-articular treatment: paw thickness, arthritis clinical score, body weight;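 also: mouse arthritis induced by IV anti-collagen mAb on day 0 plus IP LPS on day 4, with body weight, caliper paw thickness and 0-4 paw score tracked against a day 0 baseline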
Details: for Clinical score of treated leg (Avg.) / Paw thickness Avg. Delta untreated -treated / Paw thickness of treated leg (Avg.) / Paw thickness of untreated leg (Avg.) / Percent change of weight per day (Av) / Percent change of weight per day (individual animal) / Δ clinical score untreated -treated, Avg. Delta: 10 mg/kg IA (Group 2)
[1] = BETi1 0.01 mg/kg IA (Group 5), Av
[2] = BETi1 0.01 mg/kg IA (Group 5), individual animals, 0.01 mg/kg
[3] = BETi1 0.1 mg/kg IA (Group 4), Av

SMILES: Cn1cc(-c2cccc(O)c2Oc2ccccc2)c2cc[nH]c2c1=O [BETi1]
- Clinical score of treated leg (Avg.) (Baseline): 0.00 points
- Paw thickness Avg. Delta untreated -treated (Baseline): −0.05 mm
- Paw thickness of treated leg (Avg.) (Baseline): 2.12 mm
- Paw thickness of untreated leg (Avg.) (Baseline): 2.07 mm
- Percent change of weight per day (Av) (Baseline): 100.00%
- Percent change of weight per day (individual animal) (Baseline): 100%
- Δ clinical score untreated -treated, Avg. Delta (Baseline): 0.00 points
- Clinical score of treated leg (Avg.) (Day 3): 0.00 points
- Paw thickness Avg. Delta untreated -treated (Day 3): −0.01 mm
- Paw thickness of treated leg (Avg.) (Day 3): 2.16 mm
- Paw thickness of untreated leg (Avg.) (Day 3): 2.15 mm
- Percent change of weight per day (Av) (Day 3): 100.21%
- Percent change of weight per day (individual animal) (Day 3): 99.5% and 99.54% and 102.4038% and 101.3825% and 100.4673% and 98.1982% and 100%
- Δ clinical score untreated -treated, Avg. Delta (Day 3): 0.00 points
- Clinical score of treated leg (Avg.) (Day 4): 0.00 points
- Paw thickness Avg. Delta untreated -treated (Day 4): −0.04 mm
- Paw thickness of treated leg (Avg.) (Day 4): 2.24 mm
- Paw thickness of untreated leg (Avg.) (Day 4): 2.20 mm
- Percent change of weight per day (Av) (Day 4): 100.95%
- Percent change of weight per day (individual animal) (Day 4): 100% and 99.07% and 102.8846% and 103.2258% and 100.9346% and 98.65% and 101.8779%
- Δ clinical score untreated -treated, Avg. Delta (Day 4): 0.00 points
- Clinical score of treated leg (Avg.) (Day 5): 0.00 points
- Paw thickness Avg. Delta untreated -treated (Day 5): 0.01 mm
- Paw thickness of treated leg (Avg.) (Day 5): 2.16 mm
- Paw thickness of untreated leg (Avg.) (Day 5): 2.17 mm
- Percent change of weight per day (Av) (Day 5): 92.17%
- Percent change of weight per day (individual animal) (Day 5): 91.58% and 93.06% and 92.79% and 94.86% and 89.64% and 91.08%
- Δ clinical score untreated -treated, Avg. Delta (Day 5): 0.00 points
- Clinical score of treated leg (Avg.) (Day 6): 0.00* points
- Paw thickness Avg. Delta untreated -treated (Day 6): 0.34*** mm
- Paw thickness of treated leg (Avg.) (Day 6): 2.17*** mm
- Paw thickness of untreated leg (Avg.) (Day 6): 2.51 mm
- Percent change of weight per day (Av) (Day 6): 92.02%
- Percent change of weight per day (individual animal) (Day 6): 93.56% and 91.67% and 92.31% and 91.1215% and 91.89% and 91.5493%
- Clinical score of treated leg (Avg.) (Day 7): 0.50* points
- Paw thickness Avg. Delta untreated -treated (Day 7): 0.77*** mm
- Paw thickness of treated leg (Avg.) (Day 7): 2.23** mm
- Paw thickness of untreated leg (Avg.) (Day 7): 3.00 mm
- Percent change of weight per day (Av) (Day 7): 91.86%
- Percent change of weight per day (individual animal) (Day 7): 92.57% and 89.81% and 93.75% and 91.59% and 91.44% and 92.02%
- Clinical score of treated leg (Avg.) (Day 8): 0.83 points
- Paw thickness Avg. Delta untreated -treated (Day 8): 1.04*** mm
- Paw thickness of treated leg (Avg.) (Day 8): 2.18** mm
- Paw thickness of untreated leg (Avg.) (Day 8): 3.22 mm
- Percent change of weight per day (Av) (Day 8): 90.62%
- Percent change of weight per day (individual animal) (Day 8): 92.08% and 88.89% and 94.23% and 87.85% and 90.99% and 89.67%
- Clinical score of treated leg (Avg.) (Day 10): 0.17* points
- Paw thickness Avg. Delta untreated -treated (Day 10): 1.27 mm
- Paw thickness of treated leg (Avg.) (Day 10): 2.14** mm
- Paw thickness of untreated leg (Avg.) (Day 10): 3.41 mm
- Percent change of weight per day (Av) (Day 10): 91.54%
- Percent change of weight per day (individual animal) (Day 10): 90.59% and 88.89% and 95.19% and 91.59% and 92.34% and 90.61%
- Clinical score of treated leg (Avg.) (Day 12): 0.67 points
- Paw thickness Avg. Delta untreated -treated (Day 12): 1.32 mm
- Paw thickness of treated leg (Avg.) (Day 12): 2.17 mm
- Paw thickness of untreated leg (Avg.) (Day 12): 3.48 mm
- Percent change of weight per day (Av) (Day 12): 94.92%
- Percent change of weight per day (individual animal) (Day 12): 95.54% and 93.98% and 98.08% and 92.99% and 95.05% and 93.9%
- Δ clinical score untreated -treated, Avg. Delta (Day 12): 2.67 points
- Δ clinical score untreated -treated, Avg. Delta (Day 6, * p < 0.05 vs. Vehicle): 0.83* points
- Δ clinical score untreated -treated, Avg. Delta (Day 7, * p < 0.05 vs. Vehicle): 1.33* points
- Δ clinical score untreated -treated, Avg. Delta (Day 8, * p < 0.05 vs. Vehicle): 2.17* points
- Δ clinical score untreated -treated, Avg. Delta (Day 10, * p < 0.05 vs. Vehicle): 2.83* points
- reduction of arthritis score, treated vs untreated paw (10 mg/kg IA, day 12): 79.9%
- reduction of paw thickness, treated vs untreated paw (10 mg/kg IA, day 12): 37.6%
- Weight per day, Baseline [1]: 20.6 g
- Weight per day, Day 3 [1]: 20.4 g
- Weight per day, Day 4 [1]: 19.9 g
- Weight per day, Day 5 [1]: 18.5 g
- Weight per day, Day 6 [1]: 18.1 g
- Weight per day, Day 7 [1]: 18.9 g
- Weight per day, Day 8 [1]: 18.5 g
- Weight per day, Day 10 [1]: 18.4 g
- Weight per day, Day 12 [1]: 19.1 g
- Weight per day, Baseline [2]: 21 g (2×) and 20.9 g and 21.5 g and 21.4 g and 19.4 g and 18.7 g
- Weight per day, Day 3 [2]: 20.8 g and 20.6 g and 21.6 g and 20.9 g and 19.3 g and 18.8 g and 21 g
- Weight per day, Day 4 [2]: 21.1 g and 20.8 g and 20.9 g and 21.6 g and 17.4 g and 17.8 g and 19.6 g
- Weight per day, Day 5 [2]: 19.5 g and 18.7 g and 19.1 g and 20.2 g and 16.6 g and 16.8 g and 18.4 g
- Weight per day, Day 6 [2]: 19.1 g and 19 g and 18.6 g and 19.9 g and 15.6 g and 16.5 g and 18.1 g
- Weight per day, Day 7 [2]: 19.4 g and 19.3 g and 18.9 g and 20 g and 16 g and 19.9 g and 18.5 g
- Weight per day, Day 8 [2]: 19.3 g and 19.7 g and 18.9 g and 20.1 g and 16 g and 16.9 g and 18.5 g
- Weight per day, Day 10 [2]: 19.6 g and 19.5 g (2×) and 18.3 g and 16.2 g and 17.4 g and 18.6 g
- Weight per day, Day 12 [2]: 19.9 g and 20 g (2×) and 19.1 g and 16.9 g and 18.2 g and 19.3 g
- Weight per day, Baseline [3]: 20.4 g
- Weight per day, Day 3 [3]: 20.6 g
- Weight per day, Day 4 [3]: 20.3 g
